Data on 70 compounds can be found in patent publication US9029559B2, “Substituted 3-heteroaroylamino-propionic acid derivatives and their use as pharmaceuticals” (SANOFI, priority 2011, dated 2015).

In the first experiment the target is Recombinant human cathepsin A (Homo sapiens (Human), UniProt P10619). Briefly: Cathepsin A inhibitory activity (cleavage of Bodipy FL-labeled bradykinin, microfluidic capillary electrophoresis). The experiment is classed as biochemical. The following applies: read-out: Activity (Cathepsin A inhibitory activity, IC50).
Sequence of Recombinant human cathepsin A (P10619 29-326): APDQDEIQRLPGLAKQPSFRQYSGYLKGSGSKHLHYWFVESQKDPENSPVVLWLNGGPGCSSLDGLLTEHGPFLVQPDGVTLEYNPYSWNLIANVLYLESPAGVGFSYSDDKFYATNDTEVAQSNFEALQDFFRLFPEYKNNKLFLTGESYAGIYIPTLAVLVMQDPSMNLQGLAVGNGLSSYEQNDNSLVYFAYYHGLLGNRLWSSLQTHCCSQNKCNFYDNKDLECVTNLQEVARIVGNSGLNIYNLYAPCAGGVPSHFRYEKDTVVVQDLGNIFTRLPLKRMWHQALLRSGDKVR
Sequence of Recombinant human cathepsin A (P10619 327-480): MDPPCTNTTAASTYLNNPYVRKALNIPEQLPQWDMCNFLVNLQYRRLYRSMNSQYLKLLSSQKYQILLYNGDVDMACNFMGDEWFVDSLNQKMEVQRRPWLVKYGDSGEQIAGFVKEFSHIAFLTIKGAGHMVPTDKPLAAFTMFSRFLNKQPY
Procedure: Pharmacological Tests a) Cathepsin A Inhibitory Activity
Briefly, cathepsin A was incubated at 10 μg/ml with cathepsin L at 1 μg/ml in activation buffer (25 mM 2-(morpholin-4-yl)-ethanesulfonic acid (MES), pH 6.0, containing 5 mM dithiothreitol (DTT)) for 15 min at 37° C.
The activated cathepsin A was diluted in assay buffer (25 mM MES, pH 5.5, containing 5 mM DTT) and mixed with the test compound (dissolved in assay buffer containing (v/v) 3% DMSO) or, in the control experiments, with the vehicle in a multiple assay plate. After incubation for 15 min at room temperature, as substrate then bradykinin carrying an N-terminal ®Bodipy FL (4,4-difluoro-5,7-dimethyl-4-bora-3a,4a-diaza-s-indacene-3-propionyl) label (JPT Peptide Technologies GmbH; dissolved in assay buffer) was added to the mixture. […] After incubation for 15 min at room temperature the reaction was stopped by the addition of stop buffer (130 mM 2-(4-(2-hydroxy-ethyl)-piperazin-1-yl)-ethanesulfonic acid, pH 7.4, containing (v/v) 0.013% ®Triton X-100, 0.13% Coating Reagent 3 (Caliper Life Sciences), 6.5% DMSO and 20 μM ebelactone B (Sigma, #E0886)).
Uncleaved substrate and product were then separated by a microfluidic capillary electrophoresis on a LabChip® 3000 Drug Discovery System (12-Sipper-Chip; Caliper Life Sciences) and quantified by determination of the respective peak areas. Substrate turnover was calculated by dividing product peak area by the sum of substrate and product peak areas, and the enzyme activity and the inhibitory effect of the test compound thus quantified.
As to `O=C(O)C[C@H](NC(=O)c1cccc(-c2ccccc2Cl)n1)c1cccc(Cl)c1Cl` [compound 610], the IC50 was found to be 2.32 µM.

For `O=C(O)CC(NC(=O)c1cc(-c2ccccc2)nc(N2CCCCC2)n1)c1ccccc1Cl` (stereo not shown) [compound 616, 3-(2-Chloro-phenyl)-3-[(6-phenyl-2-piperidin-1-yl-pyrimidine-4-carbonyl)-amino]-propionic acid], the IC50 came out at 10.4 µM.

In the case of `COc1ccc([C@H](CC(=O)O)NC(=O)c2cccc(-c3ccccc3Cl)n2)cc1` [compound 599], the IC50 stood at 2.83 µM.

Still in this experiment, the particulars now being: read-out: Activity (IC50, cathepsin A inhibition).
Regarding `COc1ccccc1-c1cccc(C(=O)NC(CC(=O)O)c2ccccc2Cl)n1` (stereo not shown) [compound 597], the IC50 is 1.45 µM.

For `Cc1cccc([C@H](CC(=O)O)NC(=O)c2cccc(-c3ccccc3F)n2)c1` [compound 560], the IC50 came out at 12.9 µM.

As for `C[C@@](CC(=O)O)(NC(=O)c1cccc(-c2ccccc2Cl)n1)c1ccccc1` [compound 581], the half-maximal inhibitory concentration (IC50) is 5.76 µM.

`O=C(O)CC(NC(=O)c1ccc2nc[nH]c2n1)c1ccccc1Cl` (stereo not shown) [compound 542]: the concentration for half-maximal inhibition (IC50) amounted to 10.8 µM.

Consider `COc1ccc(C(=O)N[C@@H](CC(=O)O)c2ccccc2Cl)nc1-c1cc(C)ccc1Cl` [compound 492], for which the half-inhibitory concentration (IC50) worked out at 1.05 µM.

As to `COc1cc(C(=O)NC(CC(=O)O)c2ccccc2Cl)ccn1` (stereo not shown) [compound 536], the IC50 stood at 5.08 µM.

As for `COc1cccc(-c2cccc(C(=O)NC(CC(=O)O)c3ccccc3Cl)n2)c1` (stereo not shown) [compound 596], the IC50 was 5.77 µM.

With `Cc1cccc(C(=O)NC(CC(=O)O)c2ccccc2Cl)n1` (stereo not shown) [compound 527], the IC50 came to 4.96 µM.

As to `Cc1cc(C)nc(C(=O)NC(CC(=O)O)c2ccccc2Cl)c1` (stereo not shown) [compound 533], the IC50 amounted to 6.29 µM.

Still in this experiment, the particulars now being: read-out: Activity (IC50, cathepsin A inhibitory activity).
Consider `COc1ccc(C(=O)N[C@@H](CC(=O)O)c2ccccc2Cl)nc1-c1cccc(C(C)=O)c1` [compound 435], for which the concentration for half-maximal inhibition (IC50) is 4.2 µM.

Regarding `COc1ccc(C(=O)N[C@@H](CC(=O)O)c2ccccc2F)nc1-c1ccc(C)cc1` [compound 260], the half-inhibitory concentration (IC50) is 5.18 µM.

Regarding `COc1cc(C(=O)N[C@@H](CC(=O)O)c2ccccc2C)nc(OC)n1` [compound 16, (S)-3-[(2,6-Dimethoxy-pyrimidine-4-carbonyl)-amino]-3-o-tolyl-propionic acid], the IC50 was 1.05 µM.

Regarding `Cc1ccccc1[C@H](CC(=O)O)NC(=O)c1cccc(N2CCCCC2)n1` [compound 54], the IC50 was 8.93 µM.

Regarding `Cc1ccccc1[C@H](CC(=O)O)NC(=O)c1cccnc1` [compound 8], the IC50 came out at 10.4 µM.

With `Cc1ccccc1[C@H](CC(=O)O)NC(=O)c1ccnc(-c2ccccc2F)c1` [compound 97], the IC50 turned out to be 2.71 µM.

`COc1ccc(-c2cncc(C(=O)N[C@@H](CC(=O)O)c3ccccc3C)c2)cc1` [compound 57]: the IC50 amounted to 11.5 µM.

In the case of `COc1ccc(C(=O)N[C@@H](CC(=O)O)c2ccccc2Cl)nc1-c1ccc(F)c(F)c1` [compound 440], the concentration for half-maximal inhibition (IC50) is 1.96 µM.

On to `COc1ncc(C(=O)N[C@@H](CC(=O)O)c2ccccc2C)cc1-c1ccccc1C` [compound 411], for which the IC50 is 1.19 µM.

Consider `COc1ccc(-c2cccc(C(=O)N[C@@H](CC(=O)O)c3ccccc3C)n2)cc1` [compound 45], for which the IC50 stood at 3.09 µM.

For `COc1ccc(C(=O)N[C@@H](CC(=O)O)c2ccccc2Cl)nc1-c1cc(C)cnc1Cl` [compound 481], the concentration for half-maximal inhibition (IC50) worked out at 8.77 µM.

For `COc1ccc(C(=O)N[C@@H](CC(=O)O)c2ccccc2Cl)nc1-c1ccc(C)c(F)c1` [compound 449], the 50% inhibitory concentration (IC50) is 2.02 µM.

Take `COc1ncc(C(=O)N[C@@H](CC(=O)O)c2ccccc2Cl)cc1-c1ccc(F)cc1C` [compound 404]: the half-inhibitory concentration (IC50) is 7.14 µM.

Take `Cc1ccccc1[C@H](CC(=O)O)NC(=O)c1cncc(-c2ccccc2)c1` [compound 15]: the half-inhibitory concentration (IC50) worked out at 2.16 µM.

For `COc1ccc(C(=O)N[C@@H](CC(=O)O)c2ccccc2Cl)nc1-c1ccc(C(F)(F)F)cc1F` [compound 214], the concentration for half-maximal inhibition (IC50) is 7.02 µM.

Turning to `COc1ccc(C(=O)N[C@@H](CC(=O)O)c2ccc(C)cc2)nc1-c1ccc2ccn(C)c2c1` [compound 251], the IC50 turned out to be 8.94 µM.

Turning to `Cc1ccccc1[C@H](CC(=O)O)NC(=O)c1cncc(-c2ccc3c(c2)OCO3)c1` [compound 76], the IC50 is 8.04 µM.

As to `COc1ccccc1-c1cncc(C(=O)N[C@@H](CC(=O)O)c2ccccc2C)c1` [compound 67], the IC50 was 4.97 µM.

Regarding `COc1cccc(C(=O)N[C@@H](CC(=O)O)c2ccccc2C)n1` [compound 31], the IC50 worked out at 4.77 µM.

Consider `COc1ccc(C(=O)N[C@@H](CC(=O)O)c2ccccc2F)nc1-c1cccc(Cl)c1` [compound 265], for which the 50% inhibitory concentration (IC50) is 1.72 µM.

`COc1cc(Cl)ccc1-c1nc(C(=O)N[C@@H](CC(=O)O)c2ccccc2F)ccc1OC` [compound 299]: the half-inhibitory concentration (IC50) worked out at 1.83 µM.

As to `COc1ccc(C(=O)N[C@@H](CC(=O)O)c2ccccc2Cl)nc1-c1ccc(Cl)c(F)c1` [compound 480], the concentration for half-maximal inhibition (IC50) was found to be 4.37 µM.

On to `COc1cc(OC)nc(C(=O)N[C@@H](CC(=O)O)c2ccccc2C)n1` [compound 30], for which the half-inhibitory concentration (IC50) was determined as 4.21 µM.

In the case of `COc1ccc(C(=O)N[C@@H](CC(=O)O)c2ccccc2F)nc1-c1ccc(C)c(F)c1` [compound 290], the 50% inhibitory concentration (IC50) amounted to 3.81 µM.

Turning to `COc1ccc(C(=O)N[C@@H](CC(=O)O)c2ccc(C)cc2)nc1-c1ccc(F)nc1` [compound 227], the IC50 turned out to be 7.63 µM.

Turning to `COc1cccnc1C(=O)N[C@@H](CC(=O)O)c1ccccc1C` [compound 9], the IC50 worked out at 7.25 µM.

With `Cc1ccccc1[C@H](CC(=O)O)NC(=O)c1cccc(F)n1` [compound 48], the half-maximal inhibitory concentration (IC50) is 1.67 µM.

Regarding `COc1ncc(C(=O)N[C@@H](CC(=O)O)c2ccccc2C)cc1-c1cccc(C)c1` [compound 417], the IC50 was found to be 4.86 µM.

Turning to `COc1ncc(C(=O)N[C@@H](CC(=O)O)c2ccccc2C)cc1-c1cccc(-c2ccccc2)c1` [compound 423], the IC50 is above 10 µM.

For the compound `COc1ccc(F)c(-c2cncc(C(=O)N[C@@H](CC(=O)O)c3ccccc3C)c2)c1` [compound 88], the IC50 amounted to 8.51 µM.

`COc1ccc(C(=O)N[C@@H](CC(=O)O)c2ccccc2Cl)nc1-c1c(C)nn(C)c1C` [compound 486]: the IC50 was determined as 4.95 µM.

Turning to `COc1ccc(C(=O)N[C@@H](CC(=O)O)c2ccc(C)cc2)nc1-c1ccc(F)c(C)c1` [compound 225], the IC50 was found to be 3.26 µM.

Staying with this experiment, now noted: read-out: Activity [μM] (IC50, cathepsin A inhibitory activity).
Turning to `Cc1ccc(-c2cccc(C(=O)N[C@@H](CC(=O)O)c3ccccc3C)n2)cc1` [compound 137], the IC50 stood at 1.24 µM.

`Cc1ccccc1[C@H](CC(=O)O)NC(=O)c1cccc(-c2cccc(Cl)c2)n1` [compound 140]: the half-maximal inhibitory concentration (IC50) worked out at 1.57 µM.

As for `COc1ccc(C(=O)N[C@@H](CC(=O)O)c2ccccc2C)nc1-c1cccc(C#N)c1` [compound 359], the IC50 was determined as 4.49 µM.

In the case of `COc1ccc(C(=O)N[C@@H](CC(=O)O)c2ccccc2C)nc1-c1ccc(F)nc1` [compound 373], the IC50 is 1.6 µM.

Turning to `COc1ccccc1-c1cc(C(=O)N[C@@H](CC(=O)O)c2ccccc2Cl)cnc1OC` [compound 394], the half-inhibitory concentration (IC50) stood at 3.76 µM.

For the compound `COc1ccc(C(=O)N[C@@H](CC(=O)O)c2ccccc2C)nc1-c1ccccc1C(=O)N(C)C` [compound 374], the concentration for half-maximal inhibition (IC50) stood at 2.48 µM.

As to `Cc1ccccc1[C@H](CC(=O)O)NC(=O)c1cccc(-c2ccc3c(c2)OCO3)n1` [compound 152], the IC50 came to 1.55 µM.

In the case of `Cc1ccccc1[C@H](CC(=O)O)NC(=O)c1cccc(-c2ccccc2C#N)n1` [compound 157], the 50% inhibitory concentration (IC50) was 2.46 µM.

Regarding `COc1ncc(C(=O)N[C@@H](CC(=O)O)c2ccccc2Cl)cc1-c1ccc(Cl)cc1` [compound 386], the IC50 stood at 10.4 µM.

As for `COc1ccc(C(=O)N[C@@H](CC(=O)O)c2ccccc2Cl)nc1-c1cccc(C(F)(F)F)c1` [compound 329], the IC50 turned out to be 3.74 µM.

Consider `Cc1ccccc1[C@H](CC(=O)O)NC(=O)c1cccc(-c2cccc(OCC3CC3)c2)n1` [compound 171], for which the IC50 was determined as 6.98 µM.

For the compound `COc1ccc(C(=O)N[C@@H](CC(=O)O)c2ccc(C)cc2)nc1-c1cccc(C(F)(F)F)c1` [compound 181], the 50% inhibitory concentration (IC50) amounted to 5 µM.

With `COc1ccc(C(=O)N[C@@H](CC(=O)O)c2ccccc2C)nc1-c1ccc(C)o1` [compound 376], the IC50 is 6.1 µM.

For the compound `Cc1ccccc1[C@H](CC(=O)O)NC(=O)c1cccc(-c2cccc(F)c2C)n1` [compound 172], the concentration for half-maximal inhibition (IC50) was 3.21 µM.

Regarding `COc1ncc(C(=O)N[C@@H](CC(=O)O)c2ccccc2Cl)cc1-c1ccc(F)cc1` [compound 346], the half-maximal inhibitory concentration (IC50) was 8.26 µM.

Regarding `Cc1ccccc1[C@H](CC(=O)O)NC(=O)c1cccc(-c2cccc(C#N)c2)n1` [compound 145], the half-inhibitory concentration (IC50) turned out to be 7.46 µM.

As for `COc1ccc(C(C)(C)C)cc1-c1nc(C(=O)N[C@@H](CC(=O)O)c2ccccc2F)ccc1OC` [compound 308], the IC50 is above 10 µM.

Take `Cc1ccccc1[C@H](CC(=O)O)NC(=O)c1ccnc(-c2cccc(Cl)c2Cl)c1` [compound 123]: the IC50 is 3.7 µM.

For `COc1ccc(C(=O)N[C@@H](CC(=O)O)c2ccccc2F)nc1-c1cccc(-c2nnc(C)o2)c1` [compound 316], the 50% inhibitory concentration (IC50) was above 10 µM.

As for `COc1ncc(C(=O)N[C@@H](CC(=O)O)c2ccccc2Cl)cc1-c1cccc(F)c1` [compound 341], the IC50 was 9.86 µM.

As to `Cc1ccccc1[C@H](CC(=O)O)NC(=O)c1cccc(-c2c(C)noc2C)n1` [compound 159], the half-inhibitory concentration (IC50) is 14.4 µM.

Take `COc1ccc(C(=O)N[C@@H](CC(=O)O)c2ccccc2C)nc1-c1ccnc(N2CCOCC2)c1` [compound 381]: the IC50 was above 10 µM.

`COc1cccc(-c2nc(C(=O)N[C@@H](CC(=O)O)c3ccc(C)cc3)ccc2OC)c1` [compound 191]: the half-maximal inhibitory concentration (IC50) came to 4.57 µM.

For the compound `COc1ccc(C(=O)N[C@@H](CC(=O)O)c2ccccc2F)nc1-c1cccc(C2(O)COC2)c1` [compound 326], the 50% inhibitory concentration (IC50) was found to be 8.46 µM.

Take `COc1ccc(C(=O)N[C@@H](CC(=O)O)c2ccccc2C)nc1-c1cccc(C2(O)COC2)c1` [compound 384]: the IC50 was determined as 2.39 µM.

Turning to `COc1ccc(C(=O)N[C@@H](CC(=O)O)c2ccccc2Cl)nc1-c1ccc(Cl)cc1` [compound 334], the IC50 is 1.81 µM.

A word on the IC50: it is the midpoint of a concentration-inhibition curve.
